Experimental data as given in patent publication US20240050428A1 (Cullgen (Shanghai), Inc., priority 2020, published 2024).
Read-outs that look alike come from different tables or passages of the source.

Columns and labels:
MOLM-13 cells = assay: Cell viability assay (CellTiter-Glo) in MOLM-13 cells, alone or with gilteritinib; type: cell-based; details: Homo sapiens, MOLM-13, 72 h
MV4;11 cells = assay: Cell viability assay (CellTiter-Glo) in MV4;11 cells, alone or with gilteritinib; type: cell-based; details: read-out: MV4
[1] = MOLM-13 cells, compound alone (without gilteritinib), three days, CellTiter-Glo, read-out: MOLM-13 IC50
[2] = MOLM-13 cells, compound with gilteritinib 20 nM, three days, CellTiter-Glo, read-out: MOLM-13 IC50 gilteritinib
[3] = Homo sapiens, MV4-11, 72 h, MV4;11 cells, compound alone (without gilteritinib), three days, CellTiter-Glo, 11 IC50
[4] = Homo sapiens, MV4-11, 72 h, MV4;11 cells, compound with gilteritinib 10 nM, three days, CellTiter-Glo, 11 IC50 gilteritinib
[5] = MOLM-13 cells, with gilteritinib 20 nM, three days, CellTiter-Glo, read-out: MOLM-13 IC50 gilteritinib
[6] = Homo sapiens, MV4-11, 72 h, MV4;11 cells, with gilteritinib 10 nM, three days, CellTiter-Glo, 11 IC50 gilteritinib

IC50 (MOLM-13 cells; [1]) | IC50 (MOLM-13 cells; [2]) | IC50 (MV4;11 cells; [3]) | IC50 (MV4;11 cells; [4]) | IC50 (MOLM-13 cells; [5]) | IC50 (MV4;11 cells; [6]) | IC50 (MV4;11 cells; MV4;11 cells, compound alone (without gilteritinib), three days, CellTiter-Glo, 11 IC50) | Structure (SMILES) | IC50 (MOLM-13 cells; read-out: MOLM-13 IC50) | IC50 (MOLM-13 cells; read-out: MOLM-13 IC50 gilteritinib) | IC50 (MV4;11 cells; Homo sapiens, MV4-11, 72 h, 11 IC50) | IC50 (MV4;11 cells; Homo sapiens, MV4-11, 72 h, 11 IC50 gilteritinib)
100 to 1000 nM | < 10 nM | 10 to 100 nM | < 10 nM | – | – | – | CN1CCN(c2ccc3ncc(-c4cn(CCCCCCNc5ccc6c(c5)C(=O)N(C5CCC(=O)NC5=O)C6=O)nc4C4CC4)nc3c2)CC1 (stereo not shown) [GS-570, 5-((6-(3-Cyclopropyl-4-(7-(4-methylpiperazin-1-yl)quinoxalin-2-yl)-1H-pyrazol-1-yl)hexyl)amino)-2-(2,6-dioxopiperidin-3-yl)isoindoline-1,3-dione] | – | – | – | –
> 1000 nM | – | > 1000 nM | – | 100 to 1000 nM | > 1000 nM | – | O=C1CCC(N2C(=O)c3ccc(NC[C@H]4C[C@@H](n5cc(-c6cnc7ccccc7n6)cn5)C4)cc3C2=O)C(=O)N1 (stereo partly drawn) [GS-179, 2-(2,6-Dioxopiperidin-3-yl)-5-(((cis-3-(4-(quinoxalin-2-yl)-1H-pyrazol-1-yl)cyclobutyl)methyl)amino)isoindoline-1,3-dione] | – | – | – | –
100 to 1000 nM | – | 100 to 1000 nM | – | 10 to 100 nM | 10 to 100 nM | – | O=C1CCC(N2C(=O)c3ccc(NCCC[C@H]4C[C@H](n5cc(-c6cnc7ccccc7n6)cn5)C4)cc3C2=O)C(=O)N1 (stereo partly drawn) [GS-176, 2-(2,6-Dioxopiperidin-3-yl)-5-((3-(trans-3-(4-(quinoxalin-2-yl)-1H-pyrazol-1-yl)cyclobutyl)propyl)amino)isoindoline-1,3-dione] | – | – | – | –
> 1000 nM | 10 to 100 nM | 100 to 1000 nM | 10 to 100 nM | – | – | – | Cc1ccc(-c2cnn([C@H]3C[C@H](CCCNc4ccc5c(c4)C(=O)N(C4CCC(=O)NC4=O)C5=O)C3)c2)nc1 (stereo partly drawn) [GS-446, 2-(2,6-dioxopiperidin-3-yl)-5-((3-(trans-3-(4-(5-methylpyridin-2-yl)-1H-pyrazol-1-yl)cyclobutyl)propyl)amino)isoindoline-1,3-dione] | – | – | – | –
> 1000 nM | > 1000 nM | > 1000 nM | > 1000 nM | – | – | – | CN1C(=O)CCC(N2C(=O)c3ccc(NCCC[C@H]4C[C@H](n5cc(-c6cnc7ccccc7n6)c(C6CC6)n5)C4)cc3C2=O)C1=O (stereo partly drawn) [GS-600, 5-((3-(trans-3-(3-Cyclopropyl-4-(quinoxalin-2-yl)-1H-pyrazol-1-yl)cyclobutyl)propyl)amino)-2-(1-methyl-2,6-dioxopiperidin-3-yl)isoindoline-1,3-dione] | – | – | – | –

The remaining lines, values behind:

Structure (SMILES) | IC50 (MOLM-13 cells; [1]) | IC50 (MOLM-13 cells; [2]) | IC50 (MV4;11 cells; [3]) | IC50 (MV4;11 cells; [4]) | IC50 (MOLM-13 cells; [5]) | IC50 (MV4;11 cells; [6]) | IC50 (MV4;11 cells; MV4;11 cells, compound alone (without gilteritinib), three days, CellTiter-Glo, 11 IC50) | IC50 (MOLM-13 cells; read-out: MOLM-13 IC50) | IC50 (MOLM-13 cells; read-out: MOLM-13 IC50 gilteritinib) | IC50 (MV4;11 cells; Homo sapiens, MV4-11, 72 h, 11 IC50) | IC50 (MV4;11 cells; Homo sapiens, MV4-11, 72 h, 11 IC50 gilteritinib)
Cc1nc2ccccc2nc1-c1cnn(CCCCCCCc2ccc3c(c2)C(=O)N(C2CCC(=O)NC2=O)C3)c1 (stereo not shown) [GS-134, 3-(6-(7-(4-(3-Methylquinoxalin-2-yl)-1H-pyrazol-1-yl)heptyl)-1-oxoisoindolin-2-yl)piperidine-2,6-dione] | 10 to 100 nM | – | 10 to 100 nM | – | < 10 nM | 10 to 100 nM | – | – | – | – | –
Cc1cccc(-c2cn([C@H]3C[C@H](CNc4ccc5c(c4)C(=O)N(C4CCC(=O)NC4=O)C5=O)C3)nc2C)n1 (stereo partly drawn) [GS-449, 2-(2,6-dioxopiperidin-3-yl)-5-(((trans-3-(3-methyl-4-(6-methylpyridin-2-yl)-1H-pyrazol-1-yl)cyclobutyl)methyl)amino)isoindoline-1,3-dione] | > 1000 nM | > 1000 nM | > 1000 nM | > 1000 nM | – | – | – | – | – | – | –
O=C1CCC(N2Cc3cc(Nc4ccnc(Nc5ccc6c(c5)CC(N5CCC(n7cc(-c8cnc9ccccc9n8)cn7)CC5)C6)n4)ccc3C2=O)C(=O)N1 (stereo not shown) [GS-073, 3-(1-Oxo-5-((2-((2-(4-(4-(quinoxalin-2-yl)-1H-pyrazol-1-yl)piperidin-1-yl)-2,3-dihydro-1H-inden-5-yl)amino)pyrimidin-4-yl)amino)isoindolin-2-yl)piperidine-2,6-dione] | 100 to 1000 nM | – | 100 to 1000 nM | – | 100 to 1000 nM | 10 to 100 nM | – | – | – | – | –
O=C1CCC(N2C(=O)c3ccc(NC[C@H]4C[C@H](n5cc(-c6cccc(N[C@H]7CC[C@@H](O)CC7)n6)c(C6CC6)n5)C4)cc3C2=O)C(=O)N1 (stereo partly drawn) [GS-445, 5-(((trans-3-(3-cyclopropyl-4-(6-((cis-4-hydroxycyclohexyl)amino)pyridin-2-yl)-1H-pyrazol-1-yl)cyclobutyl)methyl)amino)-2-(2,6-dioxopiperidin-3-yl)isoindoline-1,3-dione] | 100 to 1000 nM | 100 to 1000 nM | 100 to 1000 nM | 100 to 1000 nM | – | – | – | – | – | – | –
O=C1CCC(N2Cc3cc(NC(=O)C(F)(F)c4cccc(N5CCC(n6cc(-c7cnc8ccccc8n7)cn6)CC5)c4)ccc3C2=O)C(=O)N1 (stereo not shown) [GS-500, N-(2-(2,6-dioxopiperidin-3-yl)-1-oxoisoindolin-5-yl)-2,2-difluoro-2-(3-(4-(4-(quinoxalin-2-yl)-1H-pyrazol-1-yl)piperidin-1-yl)phenyl)acetamide] | < 10 nM | < 10 nM | < 10 nM | < 10 nM | – | – | – | – | – | – | –
O=C1CCC(N2C(=O)c3ccc(NCCCCCC(=O)N4CCC(n5cc(-c6ccccc6)cn5)CC4)cc3C2=O)C(=O)N1 (stereo not shown) [GS-050, 2-(2,6-Dioxopiperidin-3-yl)-5-((6-oxo-6-(4-(4-phenyl-1H-pyrazol-1-yl)piperidin-1-yl)hexyl)amino)isoindoline-1,3-dione] | – | – | – | – | – | – | – | 10 to 100 nM | < 10 nM | < 10 nM | < 10 nM
CN1CCN(c2cccc3ncc(-c4cnn(C5CC(CNc6ccc7c(c6)C(=O)N(C6CCC(=O)NC6=O)C7=O)C5)c4)nc23)CC1 (stereo not shown) [GS-398, 2-(2,6-Dioxopiperidin-3-yl)-5-(((3-(4-(8-(4-methylpiperazin-1-yl)quinoxalin-2-yl)-1H-pyrazol-1-yl)cyclobutyl)methyl)amino)isoindoline-1,3-dione] | > 1000 nM | – | > 1000 nM | – | > 1000 nM | > 1000 nM | – | – | – | – | –
O=C1CCC(N2C(=O)c3ccc(NC[C@H]4C[C@H](n5cc(C6CCCCC6O)c(C6CC6)n5)C4)cc3C2=O)C(=O)N1 (stereo partly drawn) [GS-634, 5-(((trans-3-(3-Cyclopropyl-4-(2-hydroxycyclohexyl)-1H-pyrazol-1-yl)cyclobutyl)methyl)amino)-2-(2,6-dioxopiperidin-3-yl)isoindoline-1,3-dione] | 100 to 1000 nM | 10 to 100 nM | 10 to 100 nM | < 10 nM | – | – | – | – | – | – | –
O=C(CN1CCC(N2CCN(c3ccccn3)CC2)C1)NCc1ccc2c(c1)C(=O)N(C1CCC(=O)NC1=O)C2=O (stereo not shown) [GS-332, N-((2-(2,6-Dioxopiperidin-3-yl)-1,3-dioxoisoindolin-5-yl)methyl)-2-(3-(4-(pyridin-2-yl)piperazin-1-yl)pyrrolidin-1-yl)acetamide] | > 1000 nM | – | > 1000 nM | – | > 1000 nM | > 1000 nM | – | – | – | – | –
CN1CCN(c2cccc(-c3cnn([C@H]4C[C@H](CCCNc5ccc6c(c5)C(=O)N(C5CCC(=O)NC5=O)C6=O)C4)c3)n2)CC1 (stereo partly drawn) [GS-245, 2-(2,6-Dioxopiperidin-3-yl)-5-((3-(trans-3-(4-(6-(4-methylpiperazin-1-yl)pyridin-2-yl)-1H-pyrazol-1-yl)cyclobutyl)propyl)amino)isoindoline-1,3-dione] | > 1000 nM | – | – | – | 100 to 1000 nM | 10 to 100 nM | > 1000 nM | – | – | – | –
O=C1CCC(N2C(=O)c3ccc(NCCC[C@H]4C[C@H](n5cc(C6CCOCC6)cn5)C4)cc3C2=O)C(=O)N1 (stereo partly drawn) [GS-433, 2-(2,6-dioxopiperidin-3-yl)-5-((3-(trans-3-(4-(tetrahydro-2H-pyran-4-yl)-1H-pyrazol-1-yl)cyclobutyl)propyl)amino)isoindoline-1,3-dione] | > 1000 nM | > 1000 nM | > 1000 nM | > 1000 nM | – | – | – | – | – | – | –
